Key:
[1] = target: T1, Collagenase MMP-1 (Homo sapiens, UniProt P03956); assay: Inhibition of collagenase MMP-1 by hydroxamic acids; format: biochemical; settings: for Ki: Ki = IC50/(1 + [S]/Km), read-out: Apparent Ki Collagenase MMP-1
T1 sequence (P03956 100-469): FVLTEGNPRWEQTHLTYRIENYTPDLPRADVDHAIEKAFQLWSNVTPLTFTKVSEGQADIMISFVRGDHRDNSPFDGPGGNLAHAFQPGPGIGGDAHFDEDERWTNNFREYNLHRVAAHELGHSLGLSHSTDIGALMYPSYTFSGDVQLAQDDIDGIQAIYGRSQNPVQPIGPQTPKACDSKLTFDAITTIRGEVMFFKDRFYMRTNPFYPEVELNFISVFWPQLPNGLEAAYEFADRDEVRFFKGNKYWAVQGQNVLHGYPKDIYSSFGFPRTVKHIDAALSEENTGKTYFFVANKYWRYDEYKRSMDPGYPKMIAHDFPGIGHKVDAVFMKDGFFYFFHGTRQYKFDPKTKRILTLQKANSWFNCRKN

[2] = test system: Pig articular cartilage explants; assay: IL-1 induced aggrecan degradation in pig articular cartilage explants (GAG release, DMMB assay); format: cell-based; settings: 72 hours; for IC50: Sus scrofa, pig explants, IL-1α, inhibitor 0.1 to 10 μM
Protocol: (§1) The same compounds were tested for the ability to block aggrecan cleavage in an in vitro model of cartilage degradation. Pig articular cartilage explants were cultured for 72 hours in the presence of IL-α, with or without one of the inhibitors at a concentration range og 0.1 to 10 μM. Culture media were assessed for the level of glycosaminoglycan chains (GAG) by dimethyl methylene blue (DMMB) assay, as a measure of aggrecan breakdown and IC50 values were calculated (Table 1). […] Therefore, we tested JWD40 for its ability to prevent aggrecan degradation in osteoarthritic (OA) cartilage. Human OA cartilage explants were cultured with or without JWD40, 0.1 to 10 μM. After 48 hours, media were analyzed for the presence of aggrecan products generated by cleavage by aggrecanase, containing the new N-terminus ^374ARGSV.
Articular cartilage was dissected from the knees of young pigs. Cartilage was allowed to equilibrate for 3 days in DMEM supplemented with 10% FCS, penicillin (100 U/ml) and streptomycin (100 μg/ml). Subsequently, cartilage was cut into 3×3 mm explants, weighing approximately 10-20 mg each, and incubated in 96-well plates for 72 hours with either control medium (serum-free DMEM),ml), IL-1α (100 ng/ml), or IL-1α (100 ng/ml) plus a series of hydroxamic acids at a concentration range of 0.1 μM to 10 μM. At the end of the culture period, glycosaminoglycan (GAG) levels in the culture media were determined by dimethylmethylene blue (DMMB) assay, as described by Farndale et al (13).

[3] = test system: ADAMTS-4/ADAMTS-5 (aggrecanase); assay: Inhibition of aggrecan cleavage at Glu1480-Gly1481 by recombinant ADAMTS-4/ADAMTS-5 (Western blot, densitometry); format: biochemical, Human; settings: aggrecan 500 nM, enzyme 5 nM, 2 hours, 37° C.; Ki = IC50/(1 + [S]/Km); read-out: Apparent Ki aggrecanase ADAM-TS4/5
Protocol: A series of newly synthesized hydroxamic acids (FIG. 1) were tested for their ability to inhibit recombinant ADAMTS-4/ADAM-TS5 as well a several matrix metalloproteinases (MMPs). In this study aggrecan, at a concentration of 500 nM, was incubated for 2 hours at 37° C. with 5 nM of either ADAMTS-4/ADAM-TS5 in the presence or absence of one of the hydroxamic acids at a concentration range from 0.1 to 1000 nM. Subsequently, the fractions were analysed for cleavage of aggrecan at the Glu^1480-^1481Gly site by Western Blot analysis, using a specific antibody recognizing the new C-terminus GELE^1480. Inhibition of cleavage was determined by scanning densitometry and the Ki values were determined (Table 1).
Digestions were carried out in 100 μl of 50 mM Tris/HCl buffer, pH 7.5, containing 100 mM NaCl and 10 mM CaCl2. Human recombinant ADAMTS-4/ADAMTS-5 were prepared as described (1, 2). Purified bovine aggrecan (12) (500 nM) was incubated with 5 nM ADAMTS-4/ADAMTS-5 at 37° C. for 2 hours, in the absence or presence of each of the hydroxamates described above, at concentrations ranging from […]. Following the incubation, cleavage of aggrecan at the Glu^1480-^1481Gly bond was monitored by Western Blot analysis, using the neoepitope antibody that recognizes the new C-terminus GELE^1480, as previously described (12).

[4] = target: T2, gelatinase MMP-2 (Homo sapiens, UniProt P08253); assay: Inhibition of gelatinase MMP-2 by hydroxamic acids; format: biochemical; settings: for Ki: Ki = IC50/(1 + [S]/Km), read-out: Apparent Ki gelatinase MMP-2
T2 sequence (P08253 110-660): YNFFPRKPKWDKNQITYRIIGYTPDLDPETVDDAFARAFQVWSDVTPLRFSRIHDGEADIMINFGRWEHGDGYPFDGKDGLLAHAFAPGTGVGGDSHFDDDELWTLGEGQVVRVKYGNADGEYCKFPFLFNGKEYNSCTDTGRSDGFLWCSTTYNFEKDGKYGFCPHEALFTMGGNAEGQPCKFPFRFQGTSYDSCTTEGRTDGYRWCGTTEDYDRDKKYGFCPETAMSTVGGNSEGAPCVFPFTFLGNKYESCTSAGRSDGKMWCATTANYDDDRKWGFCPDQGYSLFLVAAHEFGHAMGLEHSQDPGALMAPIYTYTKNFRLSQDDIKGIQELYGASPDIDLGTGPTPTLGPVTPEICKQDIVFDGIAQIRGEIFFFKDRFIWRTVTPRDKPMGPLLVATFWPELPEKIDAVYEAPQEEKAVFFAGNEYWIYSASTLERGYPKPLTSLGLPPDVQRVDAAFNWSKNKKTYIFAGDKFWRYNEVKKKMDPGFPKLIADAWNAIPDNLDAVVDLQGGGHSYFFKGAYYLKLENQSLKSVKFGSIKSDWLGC

[5] = target: stromelysin MMP-3 (Homo sapiens, UniProt P08254); assay: Inhibition of stromelysin MMP-3 by hydroxamic acids; format: biochemical; settings: for Ki: Ki = IC50/(1 + [S]/Km), read-out: Apparent Ki stromelysin MMP-3
Chain of stromelysin MMP-3 (P08254 100-477): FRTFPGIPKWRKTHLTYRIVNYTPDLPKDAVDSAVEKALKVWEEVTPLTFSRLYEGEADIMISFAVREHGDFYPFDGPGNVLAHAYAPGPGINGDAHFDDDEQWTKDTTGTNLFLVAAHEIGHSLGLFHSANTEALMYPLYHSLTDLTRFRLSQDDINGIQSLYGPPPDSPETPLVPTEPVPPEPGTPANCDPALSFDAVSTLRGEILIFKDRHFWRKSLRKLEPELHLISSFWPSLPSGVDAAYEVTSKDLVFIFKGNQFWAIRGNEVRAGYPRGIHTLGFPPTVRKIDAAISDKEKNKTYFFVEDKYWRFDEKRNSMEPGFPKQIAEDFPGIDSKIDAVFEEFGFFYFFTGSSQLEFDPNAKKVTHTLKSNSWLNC

[6] = test system: aggrecanase-1 (ADAMTS4); assay: Protection of native aggrecan from cleavage by full length aggrecanase-1 (Western blot, MAB2035); format: biochemical; settings: peptide 100 μM, ADAMTS4 5 nM, aggrecan 500 nM, 5 hours, 37° C.
Protocol: An aggrecan binding peptide sequence derived from thrombospondin motif of aggrecanase-1 was tested for its ability to protect aggrecan from degradation by aggrecanase. Full length aggrecanase-1 (ADAMTS4), 5 nM, was incubated with native aggrecan, 500 nM, for 5 hours at 37° C. in the presence of the thrombospondin peptide GGWGPWGPWGDCSRTCGGG, 100 μM (Seq. No. 14). Aggrecan cleavage products were measured by Western blot analysis using the monoclonal antibody MAB2035.

[7] = test system: Human OA cartilage explants; assay: Aggrecanase-generated aggrecan fragment release from human osteoarthritic cartilage explants; format: cell-based; settings: 0.1 to 10 μM, 48 hours
Protocol: as §1
Articular cartilage was dissected from the hips of patients with osteoarthritis at the time of joint replacement. Cartilage was allowed to equilibrate for 3 days in DMEM supplemented with penicillin (100 U/ml) and streptomycin (100 μg/ml). […] At the end of the culture period, the media were analyzed for aggrecan fragments generated by cleavage of aggrecan by aggrecanase, using a neoepitope that recognizes the new N-terminus […] (14).

[8] = compared with Ki against aggrecanase

Row | Ki [1] | Ki [4] | Ki [5] | Potency against MMP-1 relative to aggrecanase [1, 8] | Potency against MMP-2 relative to aggrecanase [4, 8] | Potency against MMP-3 relative to aggrecanase [5, 8] | Compound | IC50 [2] | Ki [3] | Protection of aggrecan from cleavage by aggrecanase [6] | Protection against IL-1 induced aggrecan degradation ([2]; pig articular cartilage explants) | Release of aggrecanase-generated fragment with N-terminus 374ARGSV [7]
1 | 7.4 nM | 2.3 nM | 135 nM |  |  |  | CNC(=O)C(CCc1ccccc1)NC(=O)C(CC(=O)NO)CC(C)C (stereo not shown) [JWC-97] | 1800 nM | 62 nM |  |  | 
2 | 5.9 nM | 2.3 nM | 65 nM |  |  |  | CNC(=O)C(Cc1ccc(F)cc1)NC(=O)C(CC(=O)NO)CC(C)C (stereo not shown) [JWC-95] | 2900 nM | 98 nM |  |  | 
3 | 1 nM | < 0.1 nM | 0.9 nM |  |  |  | CNC(=O)C(Cc1ccc(OCc2ccccc2)cc1)NC(=O)C(CC(=O)NO)CC(C)C (stereo not shown) [JWC-100] | 6000 nM | 160 nM |  |  | 
4 | 995 nM | > 1000 nM | > 1000 nM |  |  |  | CNC(=O)C(Cc1ccccc1)NC(=O)C(CC(=O)O)CC(C)C (stereo not shown) [JWD-18] | > 100000 nM | > 10000 nM |  |  | 

Continued, compound first:

Row | Compound | Ki [1] | Ki [4] | Ki [5] | Potency against MMP-1 relative to aggrecanase [1, 8] | Potency against MMP-2 relative to aggrecanase [4, 8] | Potency against MMP-3 relative to aggrecanase [5, 8] | IC50 [2] | Ki [3] | Protection of aggrecan from cleavage by aggrecanase [6] | Protection against IL-1 induced aggrecan degradation ([2]; pig articular cartilage explants) | Release of aggrecanase-generated fragment with N-terminus 374ARGSV [7]
5 | GGWGPWGPWGDCSRTCGGG |  |  |  |  |  |  |  |  | protects aggrecan from cleavage by aggrecanase |  | 
6 | CNC(=O)[C@@H](NC(=O)[C@@H](CC(=O)NO)CC(C)C)C(C)C [JWD-40] | 26 nM | 36 nM | 125 nM | twofold less potent | twofold less potent | a log less potency | 2050 nM | 17 nM |  | very effective | blocked the release of this fragment in a concentration-dependent manner
7 | CNC(=O)C(C)NC(=O)C(CC(=O)NO)CC(C)C (stereo not shown) [JWD-52] | 76 nM | 59 nM |  |  |  |  |  | 35 nM |  |  | 

Reference: patent US20030114529A1, “Hydroxamic acid thrombospondin peptide analog that inhibits aggrecanase activity” (priority 2001, published 2003)
